Assay results: PubChem BioAssay AID1918957 (Molecular Pharmacology Branch, DTP, NCI, 2023)

System: NCI-H1876 complex spheroid viability
Experiment: Anticancer human tumor NCI-H1876 cell line growth inhibition [LSD1];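 further: spheroids exposed to compounds for one week before readout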;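 on viability, T/C: 100% = DMSO vehicle-treated spheroids so lower means fewer viable cells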
Conditions: for IC50: curve of first compound; for viability, T/C: stronger effect = lower value
Summary of the method: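 Drug combinations with the LSD1 inhibitor iadademstat tested on tumor cells co-cultured as spheroids with endothelial cells and mesenchymal stem cells. Concentrations descended in half-log increments from clinical Cmax or 10 microM.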

[1] = second compound 0.1 µM, first compound 0.000316 µM
[2] = second compound 0.1 µM, first compound 0.001 µM
[3] = second compound 0.1 µM, first compound 0.00316 µM
[4] = second compound 0.1 µM, first compound 0.01 µM
[5] = second compound 0.1 µM, first compound 0.0316 µM
[6] = second compound 0.1 µM, first compound 0.1 µM
[7] = second compound 0.316 µM, first compound 0.000316 µM
[8] = second compound 0.316 µM, first compound 0.001 µM
[9] = second compound 0.316 µM, first compound 0.00316 µM
[10] = second compound 0.316 µM, first compound 0.01 µM
[11] = second compound 0.316 µM, first compound 0.0316 µM
[12] = second compound 0.316 µM, first compound 0.1 µM
[13] = second compound 1 µM, first compound 0.000316 µM
[14] = second compound 1 µM, first compound 0.001 µM
[15] = second compound 1 µM, first compound 0.00316 µM
[16] = second compound 1 µM, first compound 0.01 µM
[17] = second compound 1 µM, first compound 0.0316 µM
[18] = second compound 1 µM, first compound 0.1 µM
[19] = second compound 3.16 µM, first compound 0.000316 µM
[20] = second compound 3.16 µM, first compound 0.001 µM
[21] = second compound 3.16 µM, first compound 0.00316 µM
[22] = second compound 3.16 µM, first compound 0.01 µM
[23] = second compound 3.16 µM, first compound 0.0316 µM
[24] = second compound 3.16 µM, first compound 0.1 µM
[25] = second compound 10 µM, first compound 0.000316 µM
[26] = second compound 10 µM, first compound 0.001 µM
[27] = second compound 10 µM, first compound 0.00316 µM
[28] = second compound 10 µM, first compound 0.01 µM
[29] = second compound 10 µM, first compound 0.0316 µM
[30] = second compound 10 µM, first compound 0.1 µM

Row | SMILES | IC50 (second compound 0.1 µM) [nM] | IC50 (second compound 0.316 µM) [nM] | IC50 (second compound 1 µM) [nM] | IC50 (second compound 3.16 µM) [nM] | IC50 (second compound 10 µM) [nM] | viability, T/C [3] [%] | viability, T/C [4] [%] | viability, T/C [5] [%] | viability, T/C [6] [%] | viability, T/C [9] [%] | viability, T/C [10] [%] | viability, T/C [11] [%] | viability, T/C [12] [%] | viability, T/C [15] [%] | viability, T/C [16] [%] | viability, T/C [17] [%] | viability, T/C [18] [%] | viability, T/C [21] [%] | viability, T/C [22] [%] | viability, T/C [23] [%] | other results
1 | CC(C)CC(NC(=O)C(Cc1ccccc1)NC(=O)c1cnccn1)B(O)O (stereo not given) + NC1CCC(NC2CC2c2ccccc2)CC1 | 0.602 | 0.563 | 0.555 | 0.449 | 0.485 | 31.7 | 14.5 | 0.17 | 3.63 | 13.6 | 17.3 | 10.1 | 3.61 | 13.8 | 13.1 | 7.48 | 11.4 | 9.3 | 3.65 | 0.15 | viability, T/C [1]: 92.6%; viability, T/C [2]: 16.3%; viability, T/C [7]: 89.3%; viability, T/C [8]: 9.55%; viability, T/C [13]: 82%; viability, T/C [14]: 16.4%; viability, T/C [19]: 70%; viability, T/C [20]: 0.39%; viability, T/C [24]: 10.3%; viability, T/C [25]: 74%; viability, T/C [26]: 9.39%; viability, T/C [27]: 7.81%; viability, T/C [28]: 7.31%; viability, T/C [29]: 3.77%; viability, T/C [30]: 12.5%
2 | CC(C)CC(NC(=O)CNC(=O)c1cc(Cl)ccc1Cl)B1OC(=O)CC(CC(=O)O)(C(=O)O)O1 (stereo not given) + NC1CCC(NC2CC2c2ccccc2)CC1 | 9.07 | 8.75 | 7.91 | 7.93 | 7.52 | 104 | 45.1 | 8.77 | 0.58 | 104 | 43 | 7.91 | 17.4 | 96.2 | 38.2 | 9.23 | 7.49 | 99 | 36.5 | 18.1 | viability, T/C [1]: 94.5%; viability, T/C [2]: 109%; viability, T/C [7]: 98.2%; viability, T/C [8]: 108%; viability, T/C [13]: 99.3%; viability, T/C [14]: 97.2%; viability, T/C [19]: 105%; viability, T/C [20]: 112%; viability, T/C [24]: 0.81%; viability, T/C [25]: 99%; viability, T/C [26]: 104%; viability, T/C [27]: 93.9%; viability, T/C [28]: 35.5%; viability, T/C [29]: 15.6%; viability, T/C [30]: 13.8%
3 | COc1cc(Nc2ncc3c(n2)-c2ccc(Cl)cc2C(c2c(F)cccc2OC)=NC3)ccc1C(=O)O + NC1CCC(NC2CC2c2ccccc2)CC1 | 33.3 | 18.1 | 34.7 | 20 | 17.2 | 67.7 | 59.1 | 51.7 | 39.5 | 64.9 | 52.9 | 45.6 | 37.6 | 62.3 | 57.5 | 51.8 | 40 | 62.9 | 52.1 | 47.2 | viability, T/C (second compound 0.1 µM, first compound 0.316 µM): 31.7%; viability, T/C (second compound 0.1 µM, first compound 1 µM): 25.7%; viability, T/C (second compound 0.316 µM, first compound 0.316 µM): 35%; viability, T/C (second compound 0.316 µM, first compound 1 µM): 23.7%; viability, T/C (second compound 1 µM, first compound 0.316 µM): 32.3%; viability, T/C (second compound 1 µM, first compound 1 µM): 19.9%; viability, T/C [24]: 41.2%; viability, T/C (second compound 3.16 µM, first compound 0.316 µM): 28.6%; viability, T/C (second compound 3.16 µM, first compound 1 µM): 22.1%; viability, T/C [27]: 60.9%; viability, T/C [28]: 52.7%; viability, T/C [29]: 50.3%; viability, T/C [30]: 33.2%; viability, T/C (second compound 10 µM, first compound 0.316 µM): 31.5%; viability, T/C (second compound 10 µM, first compound 1 µM): 22.5%
